Measured values taken from the OPERA property sets (Mansouri et al. 2018).

details: not given

In order of rising melting point:
1. C=CCOC(=O)CCC  -80 °C
2. CCc1ccc(C)nc1  -70.9 °C
3. CCCCCCCCN(C)C  -57 °C
4. COC(=O)CCCC(=O)OC  -42.5 °C
5. c1ccc2ncccc2c1  -14.8 °C
6. O=[N+]([O-])c1cc(F)ccc1F  -11.7 °C
7. COc1cccc(N)c1  -1 °C
8. Cc1ccc(N)c(Cl)c1  7 °C
9. CC1(C)CCCCC1O (stereo not drawn)  8 °C
10. C#CCCCCCCCCCCCCC  10 °C
11. CCCCCCC/C=C\C(=O)O  12 °C
12. Cc1ccc(C)c(N)c1  15.5 °C
13. O=C(Cl)c1ccccc1C(=O)Cl  15.5 °C
14. COc1ccc(N=C=S)cc1  18 °C
15. COc1ccc(Cl)c(N)c1  27 °C
16. COc1cccc(C)c1C  29 °C
17. CN1CCC(O)CC1  29 °C
18. CC(=O)CCCCC(C)=O  44 °C
19. CCCCCCCCCCCCCCCCCCNC  44 °C
20. c1ccc(C2CCc3ccccc3O2)cc1 (stereo not drawn)  46.3 °C
21. CCc1ccc(C(c2ccc(CC)cc2)C(Cl)Cl)cc1  56 °C
22. CC(C)=CC1C(C(=O)OCN2C(=O)C3=C(CCCC3)C2=O)C1(C)C (stereo not drawn)  69 °C
23. CCCCCCCCCCCCCCCCOP(=O)(O)OCCCCCCCCCCCCCCCC  74.5 °C
24. OCC(O)COc1ccc(Cl)cc1 (stereo not drawn)  78 °C
25. CCNC(=S)NCC  78 °C
26. c1c[nH]cn1  90.5 °C
27. CC(C)(O)CCC(C)(C)O  92 °C
28. C=CCC1(C(C)CCC)C(=O)NC(=O)NC1=O (stereo not drawn)  100 °C
29. COc1ccccc1OCCNCC(O)COc1cccc2[nH]c3ccccc3c12 (stereo not drawn)  114 °C
30. CC(C)[C@H]1CC[C@]2(C)C[C@H](O)[C@]3(C)CC[C@]12O3  114 °C
31. C=C1/C(=C\C=C2/CCC[C@]3(C)[C@@H]([C@H](C)CCCC(C)(C)O)CC[C@@H]23)C[C@@H](O)C[C@@H]1O  115 °C
32. Oc1cc(O)c2ccccc2c1  124 °C
33. Cc1nc2ccccc2c(=O)n1-c1ccccc1Cl  127 °C
34. O=C(O)c1nc(Cl)ccc1Cl  151 °C
35. CN(C)C(=S)Sc1ccc([N+](=O)[O-])cc1[N+](=O)[O-]  152 °C
36. O=c1ccn([C@@H]2C[C@@H](O)[C@H](CO)O2)c(=O)[nH]1  163 °C
37. c1ccc(C(c2ccccc2)(c2ccccc2)N2CCOCC2)cc1  175 °C
38. CC1(C)CNC(=NN=C(/C=C/c2ccc(C(F)(F)F)cc2)/C=C/c2ccc(C(F)(F)F)cc2)NC1  188 °C
39. NC(=O)CN1Cc2ccccc2OC1=O  204 °C
40. CC(CNC(=O)c1ccccc1)C(=O)OCC(=O)[C@@]12OC(C)(C)O[C@@H]1C[C@H]1[C@@H]3CCC4=CC(=O)C=C[C@]4(C)[C@@]3(F)[C@@H](O)C[C@@]12C (stereo partly drawn)  205 °C
41. CC(=O)c1c(O)c(C)c(O)c(Cc2c(O)c3c(c(C(=O)/C=C/c4ccccc4)c2O)OC(C)(C)C=C3)c1O  212 °C
42. CC(=O)Oc1c(I)cc(I)cc1C(=O)Nc1ccc(Cl)cc1  216 °C
43. CNc1ccc(O)c2c1C(=O)c1c(O)ccc(NC)c1C2=O  217 °C
44. O=C(O)c1ccc(I)cc1  270 °C
45. O=C(O)c1ccccc1C(=O)Nc1ccc(S(=O)(=O)Nc2nccs2)cc1  273 °C

With `CC(C)=CC1C(C(=O)OCN2C(=O)C3=C(CCCC3)C2=O)C1(C)C` (stereo not drawn) the ready biodegradability was “not readily biodegradable”.
In the case of `Cc1ccc(C)c(N)c1`, the ready biodegradability was “not readily biodegradable”.
For `COc1cccc(N)c1`, the ready biodegradability was “not readily biodegradable”.
For `COC(=O)CCCC(=O)OC`, the ready biodegradability was “readily biodegradable”.
For `CC1(C)[C@H](C=C(Cl)Cl)[C@H]1C(=O)OCc1cccc(Oc2ccccc2)c1`, the ready biodegradability was “not readily biodegradable”.
In the case of `c1ccc2ncccc2c1`, the ready biodegradability was “readily biodegradable”.
In the case of `CC1(C)C2CCC1(C)C(O)C2` (stereo not drawn), the ready biodegradability was “readily biodegradable”.
With `CCCCCCCCCCCCCCCCCCCCCCCCCCCCCCCCCCCCC` the ready biodegradability was “readily biodegradable”.
With `C=CC(=O)NCOCCCC` the ready biodegradability was “readily biodegradable”.
With `c1c[nH]cn1` the ready biodegradability was “readily biodegradable”.

In order of rising boiling point:
1. FC(Br)C(F)(F)Br (stereo not drawn)  76 °C
2. O=C(Cl)C(Cl)(Cl)Cl  118 °C
3. CCC(C)CO (stereo not drawn)  128 °C
4. C=CCOC(=O)CCC  142 °C
5. CCOC(=O)[C@@H](C)Br  160 °C
6. CCCC1CCCCC1C (stereo not drawn)  176 °C
7. CC1(C)CCCCC1O (stereo not drawn)  177 °C
8. CCc1ccc(C)nc1  178 °C
9. CCCCCCCCN(C)C  191 °C
10. COc1cccc(C)c1C  199 °C
11. CN1CCC(O)CC1  200 °C
12. CC(C)CCOC(=O)C(C)O (stereo not drawn)  202 °C
13. O=[N+]([O-])c1cc(F)ccc1F  206 °C
14. CC(O)C(C)C(C)O (stereo not drawn)  212 °C
15. Cc1ccc(C)c(N)c1  214 °C
16. COC(=O)CCCC(=O)OC  214 °C
17. CC(C)(O)CCC(C)(C)O  214 °C
18. Cc1ccc(N)c(Cl)c1  220 °C
19. NCCCc1ccccc1  221 °C
20. c1ccc2ncccc2c1  237 °C
21. CC(=O)Oc1cc(C)ccc1C(C)C  245 °C
22. CC=CC(=O)OC(=O)C=CC  247 °C
23. COc1cccc(N)c1  251 °C
24. c1c[nH]cn1  257 °C
25. C#CCCCCCCCCCCCCC  268 °C
26. COc1ccc(N=C=S)cc1  280 °C
27. O=C(Cl)c1ccccc1C(=O)Cl  281 °C
28. C[Si](C)(C)O[Si](C)(C)O[Si](C)(C)O[Si](C)(C)O[Si](C)(C)O[Si](C)(C)O[Si](C)(C)O[Si](C)(C)O[Si](C)(C)C  308 °C
29. c1ccc(C2CCc3ccccc3O2)cc1 (stereo not drawn)  332 °C
30. CCCCCCCCCCCCCCCCCCCCCCCCCCCCCCCCCCCCC  505 °C

In order of rising log10 Henry constant (atm·m³/mol):
1. CCC(C)CO (stereo not drawn)  -4.85
2. O=C(Cl)C(Cl)(Cl)Cl  -3.29

In order of falling log10 vapour pressure (mmHg):
1. O=C(Cl)C(Cl)(Cl)Cl  1.33
2. CCC(C)CO (stereo not drawn)  0.494
3. CCc1ccc(C)nc1  0.155
4. COC(=O)CCCC(=O)OC  -0.745
5. Cc1ccc(C)c(N)c1  -0.824
6. COc1cccc(N)c1  -1.12
7. c1ccc2ncccc2c1  -1.22
8. O=C(Cl)c1ccccc1C(=O)Cl  -1.79
9. O=C(O)c1nc(Cl)ccc1Cl  -4.92
10. CC1(C)CNC(=NN=C(/C=C/c2ccc(C(F)(F)F)cc2)/C=C/c2ccc(C(F)(F)F)cc2)NC1  -7.69

In order of rising log10 Koc (L/kg):
1. O=C(O)c1nc(Cl)ccc1Cl  1.56
2. COC(=O)c1cc(Cl)cc(N)c1Cl  2.74
3. c1ccc2ncccc2c1  3.1
4. CC1(C)CNC(=NN=C(/C=C/c2ccc(C(F)(F)F)cc2)/C=C/c2ccc(C(F)(F)F)cc2)NC1  5.86

same assay, conditions: fish

In order of falling log10 BCF:
1. ClCCl  1.36
2. O=S(=O)(O)c1ccc(O)c2ccccc12  1.11
3. Cc1ccc(C)c(N)c1  0.58
4. c1ccc2ncccc2c1  0.58

In order of rising log10 biotransformation half-life (days):
1. c1ccc2ncccc2c1  -1.33
2. Cc1ccc(C)c(N)c1  -0.99
3. ClCCl  -0.51
